Data reported in PMC12029836, “Phytotoxicity, Cytotoxicity, and Antimicrobial Activity of Triethanolammonium Amino Acids Salts” (Molecules, 2025).
Like-named read-outs stand apart in the source and are kept apart here.

Tests used:
L929 fibroblasts = experiment: Mammalian cell cytotoxicity screening, resazurin viability; format: cell-based, mouse
E. coli ATCC 8739 = experiment: Antimicrobial activity, broth microdilution MIC/MBC; format: cell-based, Escherichia coli; settings: nd—not detected; for MIC (%): E. coli ATCC 8739, 24 h at 37 °C, at least 90% growth inhibition
C. albicans ATCC 10231 = experiment: as above; format: cell-based, Candida albicans; settings: C. albicans ATCC 10231, 24 h at 37 °C, at least 90% growth inhibition; nd—not detected
[1] = tested on: Lepidium sativum L. seeds; settings: 24 h incubation, mean(±SD), n = 3
[2] = tested on: Lepidium sativum L. roots; settings: 24 h incubation, mean(±SD), n = 3
S. aureus ATCC 6538 = experiment: Antimicrobial activity, broth microdilution MIC/MBC; format: cell-based, Staphylococcus aureus; settings: S. aureus ATCC 6538, 24 h at 37 °C, at least 90% growth inhibition; nd—not detected
[3] = 0.01% (w/w) compound in the medium
[4] = 0.03% (w/w) compound in the medium
[5] = 0.05% (w/w) compound in the medium
[6] = 0.10% (w/w) compound in the medium
[7] = 0.30% (w/w) compound in the medium
[8] = 0.50% (w/w) compound in the medium
[9] = 1.00% (w/w) compound in the medium
[10] = 2.00% (w/w) compound in the medium
[11] = 4.00% (w/w) compound in the medium
[12] = 3.00% (w/w) compound in the medium
[13] = 5.00% (w/w) compound in the medium

SMILES	ED20 (L929 fibroblasts; 24h exposure) [%]	ED50 (L929 fibroblasts; 24h exposure) [%]	ED80 (L929 fibroblasts; 24h exposure) [%]	ED20 (L929 fibroblasts; 48h exposure) [%]	ED50 (L929 fibroblasts; 48h exposure) [%]	ED80 (L929 fibroblasts; 48h exposure) [%]	MIC (%) (E. coli ATCC 8739)	MIC (%) (C. albicans ATCC 10231)	Inhibition of the Lepidium sativum seeds germination (ISG, %) [1, 3]	Inhibition of the Lepidium sativum seeds germination (ISG, %) [1, 4]	Inhibition of the Lepidium sativum seeds germination (ISG, %) [1, 5]	Inhibition of the Lepidium sativum seeds germination (ISG, %) [1, 6]	Inhibition of the Lepidium sativum seeds germination (ISG, %) [1, 7]	Inhibition of the Lepidium sativum seeds germination (ISG, %) [1, 8]	Inhibition of the Lepidium sativum seeds germination (ISG, %) [1, 9]	Inhibition of the Lepidium sativum seeds germination (ISG, %) [1, 10]	Inhibition of the Lepidium sativum seeds germination (ISG, %) [1, 11]	Inhibition of the root growth in pregerminated Lepidium sativum seeds (IRG, %) [2, 3]	Inhibition of the root growth in pregerminated Lepidium sativum seeds (IRG, %) [2, 4]	Inhibition of the root growth in pregerminated Lepidium sativum seeds (IRG, %) [2, 5]	further results
CC(O)C(N)C(=O)O.OCCN(CCO)CCO [[TEA][Thr]]	0.40±0.09	0.57±0.03	0.73±0.14	0.26±0.03	0.38±0.02	0.50±0.03	7.50	3.75	0.0(±0.0) %	3.8(±0.1) %	6.7(±0.8) %	11.3(±1.7) %	15.1(±0.8) %	16.8(±0.9) %	18.9(±1.7) %	21.7(±0.8) %	45.3(±2.1) %	0.0(±0.0) %	17.7(±2.3) %	19.7(±2.4) %	Inhibition of the root growth in pregerminated Lepidium sativum seeds (IRG, %) [2, 6]: 21.8(±1.9) %; Inhibition of the root growth in pregerminated Lepidium sativum seeds (IRG, %) [2, 7]: 37.8%; Inhibition of the root growth in pregerminated Lepidium sativum seeds (IRG, %) [2, 8]: 66.6(±1.3) %; Inhibition of the root growth in pregerminated Lepidium sativum seeds (IRG, %) [2, 9]: 73.7(±1.0) %; Inhibition of the root growth in pregerminated Lepidium sativum seeds (IRG, %) [2, 10]: 80.3(±0.9) %; Inhibition of the root growth in pregerminated Lepidium sativum seeds (IRG, %) [2, 12]: 88.0(±0.8) %; Inhibition of the root growth in pregerminated Lepidium sativum seeds (IRG, %) [2, 11]: 92.7(±0.6) %; Inhibition of the root growth in pregerminated Lepidium sativum seeds (IRG, %) [2, 13]: 96.2(±0.5) %
CC(N)C(=O)O.OCCN(CCO)CCO [[TEA][Ala]]	0.54±0.06	0.57±0.04	0.59±0.11	0.25±0.03	0.42±0.02	0.63±0.03	3.75	1.88	0.0(±1.2) %	0.0(±0.8) %	0.0(±1.2) %	0.0(±0.8) %	0.0(±0.5) %	9.4(±1.4) %	11.8(±1.6) %	17.7(±0.8) %	88.3(±1.3) %	0.0(±0.0) %	0.0(±0.0) %	14.8(±1.5) %	MIC (%) (S. aureus ATCC 6538): 7.50%; MBC (%) (E. coli ATCC 8739; E. coli ATCC 8739): 7.50%; Inhibition of the Lepidium sativum seeds germination (ISG, %) [1, 12]: 64.7(±0.8) %; Inhibition of the Lepidium sativum seeds germination (ISG, %) [1, 13]: 100.0(±0.5) %; Inhibition of the root growth in pregerminated Lepidium sativum seeds (IRG, %) [2, 6]: 19.7(±1.4) %; Inhibition of the root growth in pregerminated Lepidium sativum seeds (IRG, %) [2, 7]: 27.9(±1.2) %; Inhibition of the root growth in pregerminated Lepidium sativum seeds (IRG, %) [2, 8]: 36.1(±1.2) %; Inhibition of the root growth in pregerminated Lepidium sativum seeds (IRG, %) [2, 9]: 55.2(±0.8) %; Inhibition of the root growth in pregerminated Lepidium sativum seeds (IRG, %) [2, 10]: 67.2(±1.0) %; Inhibition of the root growth in pregerminated Lepidium sativum seeds (IRG, %) [2, 12]: 77.6(±0.6) %; Inhibition of the root growth in pregerminated Lepidium sativum seeds (IRG, %) [2, 11]: 79.3(±0.6) %; Inhibition of the root growth in pregerminated Lepidium sativum seeds (IRG, %) [2, 13]: 89.7(±0.5) %
